Values of other authors in patent US20070286875A1 (Morton Grove Pharmaceuticals, Inc., priority 2006, published 2007).

Columns and labels:
[1] = 10 mg once daily with erythromycin, cimetidine, ketoconazole

binding to peripheral versus central nervous system H1-receptors (H1-receptors): preferential binding to peripheral
SMILES: CCOC(=O)N1CCC(=C2c3ccc(Cl)cc3CCc3cccnc32)CC1 [loratadine, ethyl 4-(8-chloro-5,6-dihydro-11H-benzo[5,6]cyclohepta[1,2-b]pyridin-11-ylidene)-1-piperidinecarboxylate]
changes in safety profile on co-administration [1]: no clinically relevant changes
